According to the supplement of paper PMC11208160:

Test: recombinant UMI read abundance after kanamycin selection (control-corrected) (log10(CPM+1)); higher = more efficient recombination; extreme values may be limits of the assay; sequences stand for … in AGTGCAGAGAAAATCGGCCAGTTTTCTCTGCCTGCAGTCCGCATGCCGTGGGACCCCTTGGGTTCTAACCTGTTGCCTAGATTTATGCAGCGGACTGCCTTTCTCCCAAAGTGATAAACCGG…AGGTTGGTTTCACT; site = the 11-nt donor
How it was run: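 For the IS621 bridge recombinase, a pooled Escherichia coli screen tested donor and donor-binding-loop pairs. Cells received the pair library together with a target plasmid encoding a fixed target and T7-inducible recombinase, then went onto IPTG (0.07 mM) plus kanamycin or unselected plates in duplicate. After PCR across the donor–target junction and sequencing, recombinant UMI counts were normalized to CPM, averaged, and scaled by control-derived factors. Each value is given as log10(CPM+1).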
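Note: IS621 bridge recombinase in Escherichia coli cells against a fixed T5 target plasmid.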

| Sequence | recombinant UMI read abundance (log10) |
| --- | --- |
| CCGTTTGCATGGACCGGTTTTCCCGGTAATCCGTATTTGTG (site CCGTTAGCTCA) | 0.00545 |
| CCGTTTGCATGGACCGGTTTTCCCGGTAATCCGTATTTGTG (site CCGTTCGCTCA) | 0.0182 |
| CCGTTTGCATGGACCGGTTTTCCCGGTAATCCGTATTTGTG (site CCGTTGGCTCA) | 0.0153 |
| CCGTTTGCATGGACCGGTTTTCCCGGTAATCCGTATTTGTG (site CCGTTTGCTCA) | 0 |
| CCTAAAGCATGGACCGGTTTTCCCGGTAATCCGTATTTGAG (site CCTAAAGCTAT) | 0 |
| CCTAAAGCATGGACCGGTTTTCCCGGTAATCCGTATTTGAG (site CCTAAAGCTCT) | 0.599 |
| CCTAAAGCATGGACCGGTTTTCCCGGTAATCCGTATTTGAG (site CCTAAAGCTGT) | 0 |
| CCTAAAGCATGGACCGGTTTTCCCGGTAATCCGTATTTGAG (site CCTAAAGCTTT) | 0 |
| CCTAAAGCATGGACCGGTTTTCCCGGTAATCCGTATTTGCT (site CCTAAAGCTAA) | 0.00467 |
| CCTAAAGCATGGACCGGTTTTCCCGGTAATCCGTATTTGCT (site CCTAAAGCTAC) | 0 |
| CCTAAAGCATGGACCGGTTTTCCCGGTAATCCGTATTTGCT (site CCTAAAGCTAG) | 0 |
| CCTAAAGCATGGACCGGTTTTCCCGGTAATCCGTATTTGCT (site CCTAAAGCTAT) | 0 |
| CCTAAATCATGGACCGGTTTTCCCGGTAATCCGTATTTGCA (site CCTAAATCTTG) | 0 |
| CCTAAGTCATGGACCGGTTTTCCCGGTAATCCGTATTTGCA (site CCTAAGTCTTG) | 0 |
| CCTAATACATGGACCGGTTTTCCCGGTAATCCGTATTTGGT (site CCTAATACTAC) | 0 |
| CCTAATACATGGACCGGTTTTCCCGGTAATCCGTATTTGGT (site CCTAATACTCC) | 0.0104 |
| CCTAATACATGGACCGGTTTTCCCGGTAATCCGTATTTGGT (site CCTAATACTGC) | 0 |
| CCTAATACATGGACCGGTTTTCCCGGTAATCCGTATTTGGT (site CCTAATACTTC) | 0 |
| CCTAATACATGGACCGGTTTTCCCGGTAATCCGTATTTGTC (site CCTAATACTGA) | 0 |
| CCTAATACATGGACCGGTTTTCCCGGTAATCCGTATTTGTC (site CCTAATACTGC) | 0 |
| CCTAATACATGGACCGGTTTTCCCGGTAATCCGTATTTGTC (site CCTAATACTGG) | 0 |
| CCTAATACATGGACCGGTTTTCCCGGTAATCCGTATTTGTC (site CCTAATACTGT) | 0 |
| CCTAATGCATGGACCGGTTTTCCCGGTAATCCGTATTTGGC (site CCTAATACTGC) | 0 |

| Sequence | recombinant UMI read abundance (log10) |
| --- | --- |
| CCTAATGCATGGACCGGTTTTCCCGGTAATCCGTATTTGGC (site CCTAATCCTGC) | 0 |
| CCTAATGCATGGACCGGTTTTCCCGGTAATCCGTATTTGGC (site CCTAATGCTGC) | 0 |
| CCTAATGCATGGACCGGTTTTCCCGGTAATCCGTATTTGGC (site CCTAATTCTGC) | 0 |
| CCTACGGCATGGACCGGTTTTCCCGGTAATCCGTATTTGCG (site CCTACGGCTCG) | 0.00682 |
| CCTATGGCATGGACCGGTTTTCCCGGTAATCCGTATTTGGT (site CCTATGGCTAC) | 0.012 |
| CCTATTTCATGGACCGGTTTTCCCGGTAATCCGTATTTGAA (site CCTATTTCTTT) | 0 |
| CCTCAGCCATGGACCGGTTTTCCCGGTAATCCGTATTTGGC (site CCTCAGCCTGC) | 0 |
| CCTCCTTCATGGACCGGTTTTCCCGGTAATCCGTATTTGCT (site CCTCCTTCTAG) | 0 |
| CCTCGTACATGGACCGGTTTTCCCGGTAATCCGTATTTGGT (site CCTCGTACTAC) | 0.0115 |
| CCTGAACCATGGACCGGTTTTCCCGGTAATCCGTATTTGGT (site CCTGAACCTAC) | 0.00702 |
| CCTGATACATGGACCGGTTTTCCCGGTAATCCGTATTTGTA (site CCTGATACTTA) | 0.326 |
| CCTGCCCCATGGACCGGTTTTCCCGGTAATCCGTATTTGGC (site CCTGCCCCTGC) | 0 |
| CCTGGCTCATGGACCGGTTTTCCCGGTAATCCGTATTTGCA (site CCTGGCTCTTG) | 0 |
| CCTGTAACATGGACCGGTTTTCCCGGTAATCCGTATTTGCA (site CCTGTAACTTG) | 0 |
| CCTGTACCATGGACCGGTTTTCCCGGTAATCCGTATTTGCG (site CCTGTACCTCG) | 0.0076 |
| CCTTAGCCATGGACCGGTTTTCCCGGTAATCCGTATTTGAA (site CCTTAGCCTTT) | 0 |
| CCTTATACATGGACCGGTTTTCCCGGTAATCCGTATTTGAG (site CCTTATACTCT) | 0.0212 |
| CCTTCTCCATGGACCGGTTTTCCCGGTAATCCGTATTTGTG (site CCTTCTCCTCA) | 0.0156 |
| CCTTCTTCATGGACCGGTTTTCCCGGTAATCCGTATTTGGG (site CCTTCTTCTCC) | 0.00401 |
| CCTTCTTCATGGACCGGTTTTCCCGGTAATCCGTATTTGTC (site CCTTCTTCTGA) | 0 |
| CCTTTAGCATGGACCGGTTTTCCCGGTAATCCGTATTTGTG (site CCATTAGCTCA) | 0.00718 |
| CCTTTAGCATGGACCGGTTTTCCCGGTAATCCGTATTTGTG (site CCCTTAGCTCA) | 0.00968 |
| CCTTTAGCATGGACCGGTTTTCCCGGTAATCCGTATTTGTG (site CCGTTAGCTCA) | 0.00885 |

| Sequence | recombinant UMI read abundance (log10) |
| --- | --- |
| CCTTTAGCATGGACCGGTTTTCCCGGTAATCCGTATTTGTG (site CCTTTAGCTCA) | 0.0063 |
| CCTTTGCCATGGACCGGTTTTCCCGGTAATCCGTATTTGGC (site CCTTTGCCTGC) | 0 |
| CCTTTGTCATGGACCGGTTTTCCCGGTAATCCGTATTTGGA (site CCTTTGTCTTC) | 0.00278 |
| CGAAAAGCATGGACCGGTTTTCCCGGTAATCCGTATTTGCA (site CGAAAAGCTTG) | 0 |
| CGAAAGACATGGACCGGTTTTCCCGGTAATCCGTATTTGGG (site CGAAAGACTCC) | 0.621 |
| CGAAAGACATGGACCGGTTTTCCCGGTAATCCGTATTTGGT (site CGAAAGACTAC) | 2 |
| CGAAAGGCATGGACCGGTTTTCCCGGTAATCCGTATTTGCT (site AGAAAGGCTAG) | 0 |
| CGAAAGGCATGGACCGGTTTTCCCGGTAATCCGTATTTGCT (site CGAAAGGCTAG) | 2.39 |
| CGAAAGGCATGGACCGGTTTTCCCGGTAATCCGTATTTGCT (site GGAAAGGCTAG) | 0 |
| CGAAAGGCATGGACCGGTTTTCCCGGTAATCCGTATTTGCT (site TGAAAGGCTAG) | 0 |
| CGAACCACATGGACCGGTTTTCCCGGTAATCCGTATTTGTG (site CGAACCACTCA) | 0.523 |
| CGAACGACATGGACCGGTTTTCCCGGTAATCCGTATTTGTT (site CGAACGACTAA) | 1.08 |
| CGAACGACATGGACCGGTTTTCCCGGTAATCCGTATTTGTT (site CGACCGACTAA) | 0.00483 |
| CGAACGACATGGACCGGTTTTCCCGGTAATCCGTATTTGTT (site CGAGCGACTAA) | 0.0306 |
| CGAACGACATGGACCGGTTTTCCCGGTAATCCGTATTTGTT (site CGATCGACTAA) | 0.00769 |
| CGAACTCCATGGACCGGTTTTCCCGGTAATCCGTATTTGGG (site CGAACTCCTCC) | 0.143 |
| CGAAGACCATGGACCGGTTTTCCCGGTAATCCGTATTTGGG (site CGAAGACCTCC) | 0 |
| CGAAGACCATGGACCGGTTTTCCCGGTAATCCGTATTTGGG (site CGACGACCTCC) | 0.0149 |
| CGAAGACCATGGACCGGTTTTCCCGGTAATCCGTATTTGGG (site CGAGGACCTCC) | 0.0232 |
| CGAAGACCATGGACCGGTTTTCCCGGTAATCCGTATTTGGG (site CGATGACCTCC) | 0.006 |
| CGAAGTCCATGGACCGGTTTTCCCGGTAATCCGTATTTGCG (site CGAAGTCCTCG) | 1.21 |
| CGAATAACATGGACCGGTTTTCCCGGTAATCCGTATTTGCC (site CGAATAACTGG) | 0.484 |
